# Like-named read-outs stand apart in the source and are kept apart here.
# How the values were obtained:
# proteinase PrtP [1] = type: in vitro ADME, Lactococcus lactis subsp. lactis BGMN1-501
# Method: Bacteriocin activity of BGMN1-501, as well as of recombinantly produced bacteriocin was evaluated by an agar-well diffusion test ([Lozo et al., 2004]). The activity of HPLC-obtained fractions and of chemically synthesized bacteriocin was evaluated by spot-on-lawn assays. Soft GM17 agar (0.75%, w/v) containing sensitive strain was overlaid onto thin GM17 agar plates. After soft agar solidified, 10 μL of sample was spotted and plates were incubated at 30°C overnight. Clear zones of growth inhibition in the spots were used as positive signals. Lactococcus lactis subsp. lactis BGMN1-596 was used in all tests as sensitive strain. Proteinase extract was prepared as following: BGMN1-501 was grown on milk citrate agar plates, collected and re-suspended in 0.1 mol/L sodium phosphate buffer (NaPi, pH 7), incubated at room temperature for 30 min, pelleted by centrifugation and supernatants were collected prior to reactions. In vitro testing of effect of proteinase extract on bacteriocin activity was done as previously described ([Vukotic et al., 2015]), except that recombinant bacteriocins were used as substrates in the reactions.
# proteinase PrtP [2] = type: in vitro ADME, Lactococcus lactis subsp. lactis BGMN1-501; remark: listed apart in the source
# Method: For the purification and mass spectrometric analysis of the bacteriocin in Lactococcus lactis subsp. lactis BGMN1-501, the strain was grown at 30°C for 16 h in 500 mL of chemically defined growth medium (CDM)with addition of 0.5% casitone (Difco Laboratories, Becton Dickinson and Company, Franklin Lakes, NJ, United States). The bacteriocin was purified following the protocol of [Mirkovic et al. (2016)]. Briefly, the cells were removed by centrifugation (4,500 × g for 30 min at 4°C), while the supernatant was saturated up to 40% with ammonium sulfate, and precipitated with stirring for 2 h at 4°C. The precipitate was collected by centrifugation (10,000 × g for 30 min at 4°C) and then dissolved in 5 mL of Milli-Q water containing 0.1% trifluoroacetic acid. The bacteriocin was further purified using reverse-phase high-performance liquid chromatography (HPLC). […] The chromatography was monitored by measuring absorbance at 215 nm. […] Both recombinant peptides and the reaction mixtures of LcnB and PrtP were analyzed using the same reverse-phase chromatography as used for bacteriocin purification (see Section “Bacteriocin LcnB Purification From Lactococcus lactis subsp. lactis BGMN1-501”).
# [3] = tested on: LcnB receptor on sensitive BGMN1-596 cells (man-PTS); assay: Bacteriocin competition assay; type: cell-based, Lactococcus lactis subsp. lactis; details: 10 μL of 62.5–1,000 μg/mL LcnB^∗ adsorbed 30 min at room temperature, then 50 μL BGMN1-501 culture, overnight 30°C
# Method: The possibility of truncated peptide LcnB^∗ to compete with wild type LcnB for binding to its receptor molecule was tested in bacteriocin competition assay. Bacteriocin assay was prepared, as explained above. Before addition of bacteriocin producer, 10 μL of increasing concentrations (62.5–1,000 μg/mL) of LcnB^∗ was added to the wells made in soft agar and left for 30 min at room temperature to be completely adsorbed. After that, 50 μL of fresh BGMN1-501 culture was added to the wells, and incubated overnight at 30°C to produce growth inhibition zones.
# BGMN1-596 = assay: Glucose-uptake inhibition assay (growth of BGMN1-596 in GM17); type: cell-based, Lactococcus lactis subsp. lactis; details: chemically synthetized LcnB^∗, 0–1,000 μg/mL (highest concentration), BGMN1-596 5% inoculum in GM17, OD 600 nm over 6 h, triplicate
# Method: To test whether truncated peptide can interfere with glucose import, growth of BGMN1-596 in GM17 with added LcnB^∗ was monitored. Fresh overnight culture, grown in GM17, was inoculated at 5% to fresh media, and saturated with increased concentrations (0–1,000 μg/mL) of chemically synthetized LcnB^∗. As a control, the same inoculum was made in media without glucose. Bacterial growth was monitored in microtitar plates by OD measurement at 600 nm at different time points for 6h. The assay was done in triplicate.
# [4] = tested on: Lactococcus lactis subsp. lactis BGMN1-596; assay: Spot-on-lawn bacteriocin activity assay; type: cell-based; details: sensitive strain BGMN1-596, 30°C overnight
# Method: The activity of HPLC-obtained fractions and of chemically synthesized bacteriocin was evaluated by spot-on-lawn assays. Soft GM17 agar (0.75%, w/v) containing sensitive strain was overlaid onto thin GM17 agar plates. After soft agar solidified, 10 μL of sample was spotted and plates were incubated at 30°C overnight. Clear zones of growth inhibition in the spots were used as positive signals. Lactococcus lactis subsp. lactis BGMN1-596 was used in all tests as sensitive strain.
# PrtP [5] = assay: culture of Lactococcus lactis subsp. lactis BGMN1-501 in chemically defined growth medium (CDM) with addition of 0.5% casitone; cell-free supernatant; details: Lactococcus lactis subsp. lactis BGMN1-501, 30°C, up to 16 h
# PrtP [6] = assay: proteinase extract of BGMN1-501 cells in 0.1 mol/L sodium phosphate buffer (NaPi, pH 7); details: Lactococcus lactis subsp. lactis BGMN1-501, up to 20 h
Sequence,bacteriocin activity after incubation with PrtP extract (proteinase PrtP [1]),bacteriocin activity after incubation with PrtP extract (proteinase PrtP [1]; pH 7),PrtP cleavage site in the peptide (proteinase PrtP [2]),amount of peptide left after PrtP hydrolysis (proteinase PrtP [2]),effect of pretreatment on bacteriocin activity of wild type LcnB (competition for the receptor) [3],effect on bacterial growth (interference with glucose import) (BGMN1-596),"antimicrobial activity (growth inhibition zone) ([4]; chemically synthesized peptide (Biomatik), 10 μL spotted, up to 1 mg/mL)","antimicrobial activity (growth inhibition zone) ([4]; recombinant peptide (pMAL system, E. coli ER2523), 50–500 μg/mL)",cleaved bond (PrtP [5]),cleaved bond (PrtP [6])
"SLQYVMSAGPYTWYKDTRTGKTICKQTIDTASYTFGVMAEGWGKTFH [LcnB, bacteriocin of Lactococcus lactis subsp. lactis BGMN1-501, mature peptide, produced recombinantly in E. coli ER2523]",no activity could be detected,reduced the bacteriocin activity,between sixth and seventh amino acid,drastically reduced,did not influence the latter bacteriocin activity of wild type molecule,did not alter bacterial growth,inactive,strong antimicrobial activity,,
SLQYVMSAGPYTWYKDTRTGKTICKQTIDTASYTFGVMAEGWGKTFH,,,,,,,,,methionine6-serine7,"methionine6-serine7, major, 3 h"

# Reference: paper PMC6491934 (Frontiers in Microbiology, 2019)
